From ChEMBL document CHEMBL4837233, “Inhibition of BACE1 and Amyloid-β Aggregation by Meroterpenoids from the Mushroom Albatrellus yasudae” (J Nat Prod, 2021)

Legend:
Beta-secretase 1 = Beta-secretase 1 (Homo sapiens, UniProt P56817); experiment: Inhibition of BACE1 (unknown origin) using Rh-EVNNLDAEFK fluorogenic peptide as substrate incubated for 3 hrs by FRET assay
[1] = molecular target: Amyloid-beta precursor protein (Homo sapiens, UniProt P05067); experiment: Inhibition of self-induced aggregation amyloid beta (1 to 40) (unknown origin) incubated for 24 hrs by Thioflavin T based fluorometric assay
Amyloid-beta precursor protein, sequence (P05067 whole entry): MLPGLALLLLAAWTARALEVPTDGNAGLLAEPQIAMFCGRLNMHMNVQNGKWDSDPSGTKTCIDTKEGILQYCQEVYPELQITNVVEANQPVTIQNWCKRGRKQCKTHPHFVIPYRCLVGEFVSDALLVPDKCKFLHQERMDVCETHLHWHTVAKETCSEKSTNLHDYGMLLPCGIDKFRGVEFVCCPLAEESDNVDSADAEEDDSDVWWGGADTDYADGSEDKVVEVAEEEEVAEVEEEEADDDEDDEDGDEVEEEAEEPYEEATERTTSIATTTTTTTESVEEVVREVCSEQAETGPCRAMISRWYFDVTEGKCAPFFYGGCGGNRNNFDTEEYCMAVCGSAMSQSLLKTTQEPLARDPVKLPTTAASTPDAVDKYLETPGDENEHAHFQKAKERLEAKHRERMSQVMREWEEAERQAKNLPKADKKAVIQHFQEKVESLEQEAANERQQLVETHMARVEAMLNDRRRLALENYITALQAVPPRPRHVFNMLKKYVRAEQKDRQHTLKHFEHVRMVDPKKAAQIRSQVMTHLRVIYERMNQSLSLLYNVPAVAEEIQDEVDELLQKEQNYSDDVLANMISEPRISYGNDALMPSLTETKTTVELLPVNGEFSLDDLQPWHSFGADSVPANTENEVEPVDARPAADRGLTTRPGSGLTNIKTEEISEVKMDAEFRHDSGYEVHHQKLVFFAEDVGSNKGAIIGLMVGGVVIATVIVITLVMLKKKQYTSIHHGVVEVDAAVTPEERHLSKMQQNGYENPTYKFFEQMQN

Beta-secretase 1, sequence (P56817 whole entry): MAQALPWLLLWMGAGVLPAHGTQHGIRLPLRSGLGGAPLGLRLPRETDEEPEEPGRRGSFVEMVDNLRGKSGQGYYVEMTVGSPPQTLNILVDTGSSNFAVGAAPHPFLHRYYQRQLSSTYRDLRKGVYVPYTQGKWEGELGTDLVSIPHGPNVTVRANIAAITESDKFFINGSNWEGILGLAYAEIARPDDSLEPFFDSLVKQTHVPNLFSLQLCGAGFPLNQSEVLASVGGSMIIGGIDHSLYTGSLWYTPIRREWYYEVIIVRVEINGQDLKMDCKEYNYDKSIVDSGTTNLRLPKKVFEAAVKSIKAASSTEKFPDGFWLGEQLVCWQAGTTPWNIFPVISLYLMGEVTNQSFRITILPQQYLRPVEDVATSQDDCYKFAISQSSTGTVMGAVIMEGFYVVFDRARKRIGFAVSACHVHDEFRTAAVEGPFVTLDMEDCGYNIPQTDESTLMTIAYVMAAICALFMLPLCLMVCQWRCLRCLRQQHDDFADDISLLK

| Compound | IC50 (Beta-secretase 1) | IC50 [1] |
| --- | --- | --- |
| COc1c(O)c(O)c(C(=O)O)c(C)c1C/C=C(\C)CC/C=C(\C)CCC=C(C)C | 1.6 µM | 6.6 µM |
| COC(=O)c1c(C)c(C/C=C(\C)CC/C=C(\C)CCC=C(C)C)c(OC)c(O)c1O | > 100 µM | 50.3 µM |
| CC(C)=CCC/C(C)=C/CC/C(C)=C/Cc1c(O)cc(C)cc1O [GRIFOLIN] | 6.1 µM | – |

Second part, the compound after the results:

| IC50 (Beta-secretase 1) | IC50 [1] | Compound |
| --- | --- | --- |
| 10.5 µM | 51.4 µM | C/C(=C\Cc1c(O)cc(C)c(C(=O)O)c1O)CCCC1=C/C(=C\C(C)(C)O)OC1=O |
| 10.9 µM | 40.7 µM | COC(=O)c1c(C)cc(O)c(C/C=C(\C)CCCC2=C/C(=C\C(C)(C)O)OC2=O)c1O |
| 34.4 µM | 53.3 µM | C/C(=C\Cc1c(O)cc(C)c(C(=O)O)c1O)CC/C=C(\C)CC[C@H](O)C(C)(C)O |
| 1.4 µM | – | CC(C)=CCC/C(C)=C/CC/C(C)=C/Cc1c(O)cc(C)c(C(=O)O)c1O [GRIFOLIC ACID] |
